In paper PMC5224920, “Assessing the mechanism and therapeutic potential of modulators of the human Mediator complex-associated protein kinases” (eLife, 2016):
Where two headings read alike, the source gives them in different places.

What was measured:
Mouse PK = type: in vivo
Rat PK = type: in vivo
Dog PK = type: in vivo; details: for Dog PK Cl / Dog PK Vd: 0.2mg/kg i.v.
COLO205 [1] = experiment: 24 hour TCF/LEF reporter assay, COLO205; type: cell-based; details: Homo sapiens, COLO 205, 24 h, read-out: 24 hour TCF/LEF Reporter assay IC50
DLD1 [2] = experiment: 24 hour TCF/LEF reporter assay, DLD1; type: cell-based; details: Homo sapiens, DLD-1, 24 h, read-out: 24 hour TCF/LEF Reporter assay IC50
LS180 [3] = experiment: 24 hour TCF/LEF reporter assay, LS180; type: cell-based; details: Homo sapiens, LS180, 24 h, read-out: 24 hour TCF/LEF Reporter assay IC50
LS174T [4] = experiment: 24 hour TCF/LEF reporter assay, LS174T; type: cell-based; details: Homo sapiens, read-out: 24 hour TCF/LEF Reporter assay IC50
RKO [5] = experiment: 24 hour reporter assay, RKO negative control (EEF1A1 promoter-reporter); type: cell-based; details: Homo sapiens, RKO, read-out: 24 hour TCF/LEF Reporter assay IC50
SW837 [6] = experiment: 24 hour TCF/LEF reporter assay, SW837; type: cell-based; details: Homo sapiens, SW837, 24 h, read-out: 24 hour TCF/LEF Reporter assay IC50
[7] = test system: SW620 human colorectal cancer xenografts; experiment: SW620 human colorectal cancer xenograft, tumor growth inhibition; type: in vivo
[8] = test system: LS1034 colorectal cancer xenografts; experiment: LS1034 colorectal cancer xenograft, tumor growth inhibition; type: in vivo, human
[9] = test system: p-STAT1^SER727 in SW620 tumor xenografts; experiment: p-STAT1 SER727 level in SW620 xenografts (pharmacodynamics); type: in vivo, human
Protocol: As with 3, 10 mg/kg of 4 inhibited the pathway biomarker for 6 hr, but was not sufficient for antitumor activity in SW620 xenografts (Figure 2A and Figure 2—source data 1).

MV-4-11 AML xenograft = experiment: MV-4-11 AML subcutaneous xenograft; type: in vivo, human
Wistar rats = experiment: 14-day oral tolerability study in rats; type: in vivo; details: for Target organs: Rat
Description: Animals were culled 24 hr after the last dose. Additional satellite animals for toxicokinetic evaluations were included.

RKO [10] = experiment: 96 hour proliferation GI50, RKO; details: Homo sapiens, read-out: 96 hour GI50
HT29 = experiment: 96 hour proliferation GI50, HT29; details: Homo sapiens, HT-29, 96 h, read-out: 96 hour GI50
DLD1 [11] = experiment: 96 hour proliferation GI50, DLD1; details: Homo sapiens, DLD-1, 96 h, read-out: 96 hour GI50
SW948 = experiment: 96 hour proliferation GI50, SW948; details: Homo sapiens, SW948, 96 h, read-out: 96 hour GI50
LS513 = experiment: 96 hour proliferation GI50, LS513; details: Homo sapiens, LS-513, 96 h, read-out: 96 hour GI50
LS180 [12] = experiment: 96 hour proliferation GI50, LS180; details: Homo sapiens, LS180, 96 h, read-out: 96 hour GI50
SW620 = experiment: 96 hour proliferation GI50, SW620; details: Homo sapiens, SW-620, 96 h, read-out: 96 hour GI50
SW837 [13] = experiment: 96 hour proliferation GI50, SW837; details: Homo sapiens, SW837, 96 h, read-out: 96 hour GI50
LS174T [14] = experiment: 96 hour proliferation GI50, LS174T; details: Homo sapiens, read-out: 96 hour GI50
COLO205 [15] = experiment: 96 hour proliferation GI50, COLO205; details: Homo sapiens, COLO 205, 96 h, read-out: 96 hour GI50
Beagle dogs = experiment: 14-day oral tolerability study in dogs; details: for Target organs: Dog; for Fold of efficacious dose; 10 mg/kg / Fold of efficacious dose; 30 mg/kg: CMPD 4, dog 20 mg/kg
LS174T [16] = experiment: LS174T basal WNT-pathway luciferase reporter
p-STAT1^SER727 = experiment: Inhibition of STAT1 SER727 phosphorylation in cells (target-engagement biomarker)
[17] = low dose 5 mg/kg daily oral for 14 days

SMILES: Cn1ncc2cc(-c3cnc(N)c(Cl)c3N3CCC4(CCNC4=O)CC3)ccc21 [CMPD 3]
- Mouse PK Cl (Mouse PK; 0.2mg/kg i.v.): 10.2 mL/min/kg
- Mouse PK Vd (Mouse PK; 0.2mg/kg i.v.): 0.63 L/kg
- Rat PK Cl (Rat PK; 0.2mg/kg i.v.): 24.8 mL/min/kg
- Rat PK Vd (Rat PK; 0.2mg/kg i.v.): 1.99 L/kg
- Dog PK Cl (Dog PK): 17.8 mL/min/kg
- Dog PK Vd (Dog PK): 1.4 L/kg
- IC50 (COLO205 [1]): 15 nM
- IC50 (DLD1 [2]): 173 nM
- IC50 (LS180 [3]): 28 nM
- IC50 (LS174T [4]): 39 nM
- IC50 (RKO [5]): > 30000 nM
- IC50 (SW837 [6]): 14 nM
- TGI ([7]; 5 x 1 mg/kg x doses/day, day 14, nr = no response, P ns): nr
- TGI ([7]; 10 x 1 mg/kg x doses/day, day 14, P ns): 33%
- TGI ([7]; 30 x 1 mg/kg x doses/day, day 14, 8 mice, P <0.05): 48%
- TGI ([7]; 30 x 1b mg/kg x doses/day, day 14, 9 mice, P <0.01): 44%
- TGI ([7]; 30 x 2 (5/7 d) and x 1 (2/7 d)e mg/kg x doses/day, day 14, P <0.01): 44%
- TGI ([8]; 30 x 1 (5/7 d) mg/kg x doses/day, day 21, P <0.001): 55%
- Time biomarker (p-STAT1^SER727) inhibition maintained ([9]; SW620 tumor xenografts, single treatment with 30 mg/kg): approximately 10 hr
- TGI (MV-4-11 AML xenograft; 10 mg/kg po qd monotherapy): 100%
- Target organs (Wistar rats; high dose 20 mg/kg daily oral for 14 days (CMPD 3)): Bone, bone marrow, heart, liver, lung, lymph nodes, pancreas, reproductive tract (m and f), spleen, thymus.
- Target organs (Wistar rats; [17]): Bone, bone, marrow, heart, liver, lung, lymph nodes, pancreas, reproductive tract (m), spleen, thymus.
- Target organs (Wistar rats; mid dose 10 mg/kg daily oral for 14 days (CMPD 3)): Bone, bone marrow, heart, liver, lung, lymph nodes, pancreas, reproductive tract (m and f), spleen, thymus.
- GI50 (RKO [10]): > 30000 nM
- GI50 (HT29): > 30000 nM
- GI50 (DLD1 [11]): > 30000 nM
- GI50 (SW948): > 30000 nM
- GI50 (LS513): > 30000 nM
- GI50 (LS180 [12]): 6670 nM
- GI50 (SW620): 1860 nM
- GI50 (SW837 [13]): 3110 nM
- GI50 (LS174T [14]): > 30000 nM
- GI50 (COLO205 [15]): > 30000 nM
- Target organs (Beagle dogs; [17]): Bone marrow, gastrointestinal mucosa, heart, lymphatic system
- IC50 (LS174T [16]; Homo sapiens, LS174T, read-out: LS174T IC50): 33.3 ± 12.8 nM
- IC50 (p-STAT1^SER727; read-out: p-STAT1^SER727 IC50, mean ± s.d. or *± range): 22 ± 12 nM
- IC50 (p-STAT1^SER727; read-out: p-STAT1^SER727 IC50; mean ± s.d. or *± range): 25.5 ± 12 nM

SMILES: Cc1n[nH]c2ncc(C(=O)N3CCC[C@H]3c3ccc(Cl)cc3)cc12 [CMPD 4]
- Mouse PK Cl (Mouse PK; 0.2mg/kg i.v.): 22.8 mL/min/kg
- Mouse PK F (Mouse PK; 0.2mg/kg i.v. or 0.5mg/kg p.o.): 25%
- Vd (Mouse PK; female, NMRI, mouse, in vivo, iv, 0.2mg/kg i.v.): 0.59 L/kg
- Rat PK Vd (Rat PK; 0.2mg/kg i.v.): 1.62 L/kg
- Rat PK F (Rat PK; 0.2mg/kg i.v. or 0.5mg/kg p.o.): 66%
- clearance (Rat PK; male, Wistar, rat, in vivo, iv, 0.2mg/kg i.v., read-out: Rat PK Cl (converted)): 25 mL/min/kg
- Dog PK Cl (Dog PK): 22.5 mL/min/kg
- Dog PK Vd (Dog PK): 1.47 L/kg
- Dog PK F (Dog PK; 0.2mg/kg i.v. or 0.5mg/kg p.o.): 39%
- IC50 (COLO205 [1]): 9 nM
- IC50 (DLD1 [2]): 97 nM
- IC50 (LS180 [3]): 31 nM
- IC50 (LS174T [4]): 31 nM
- IC50 (RKO [5]): > 30000 nM
- IC50 (SW837 [6]): 8 nM
- TGI ([7]; 5 x 2 mg/kg x doses/day, day 13, nr = no response, P ns): nr
- TGI ([7]; 10 x 1 mg/kg x doses/day, day 13, nr = no response, P ns): nr
- TGI ([7]; 50 x 2b mg/kg x doses/day, day 16, P ns): 51%
- TGI ([7]; 100 x 1 mg/kg x doses/day, day 16, P ns): 43%
- TGI ([8]; 50 x 2 mg/kg x doses/day, day 22, P ns): 52%
- TGI ([8]; 100 x 1 mg/kg x doses/day, day 22, P ns): 30%
- Time pathway biomarker (p-STAT1^SER727) inhibited ([9]; SW620 xenografts, 10 mg/kg): 6 h
- Target inhibition by p-STAT1^SER727 (MV-4-11 AML xenograft; 2 hr post-treatment): near maximal target inhibition
- Fold of efficacious dose; 10 mg/kg (Wistar rats; CMPD 4, rat 10 mg/kg, female): ~2.4
- Fold of efficacious dose; 30 mg/kg (Wistar rats; CMPD 4, rat 10 mg/kg, female): ~0.8
- Fold of efficacious dose; 10 mg/kg (Wistar rats; CMPD 4, rat 10 mg/kg, male): ~0.9
- Fold of efficacious dose; 30 mg/kg (Wistar rats; CMPD 4, rat 10 mg/kg, male): ~0.3
- Fold of efficacious dose; 10 mg/kg (Wistar rats; CMPD 4, rat 20 mg/kg, female): ~5.7
- Fold of efficacious dose; 30 mg/kg (Wistar rats; CMPD 4, rat 20 mg/kg, female): ~1.9
- Fold of efficacious dose; 10 mg/kg (Wistar rats; CMPD 4, rat 20 mg/kg, male): ~3.9
- Fold of efficacious dose; 30 mg/kg (Wistar rats; CMPD 4, rat 20 mg/kg, male): ~1.3
- Fold of efficacious dose; 10 mg/kg (Wistar rats; CMPD 4, rat 60 mg/kg, female): ~23.1
- Fold of efficacious dose; 30 mg/kg (Wistar rats; CMPD 4, rat 60 mg/kg, female): ~7.7
- Fold of efficacious dose; 10 mg/kg (Wistar rats; CMPD 4, rat 60 mg/kg, male): ~10.8
- Fold of efficacious dose; 30 mg/kg (Wistar rats; CMPD 4, rat 60 mg/kg, male): ~3.6
- Target organs (Wistar rats; high dose 60 mg/kg daily oral for 14 days): Bone, bone marrow, brain, heart, intestines, liver, lung, lymph nodes, mammary gland, pancreas, reproductive tract (m and f), skin, spleen, stomach, thymus
- Target organs (Wistar rats; low dose 10 mg/kg daily oral for 14 days (CMPD 4)): Bone, bone marrow, intestines, liver, lung, lymph nodes, mammary gland, pancreas, reproductive tract (m and f), skin, spleen, stomach, thymus.
- Target organs (Wistar rats; mid dose 20 mg/kg daily oral for 14 days (CMPD 4)): Bone, bone marrow, heart, intestines, liver, lung, lymph nodes, mammary gland, pancreas, reproductive tract (m and f), skin, spleen, stomach, thymus
- GI50 (RKO [10]): > 30000 nM
- GI50 (HT29): > 30000 nM
- GI50 (DLD1 [11]): > 30000 nM
- GI50 (SW948): > 30000 nM
- GI50 (LS513): > 30000 nM
- GI50 (LS180 [12]): > 30000 nM
- GI50 (SW620): > 30000 nM
- GI50 (SW837 [13]): > 30000 nM
- GI50 (LS174T [14]): > 30000 nM
- GI50 (COLO205 [15]): > 30000 nM
- Fold of efficacious dose; 10 mg/kg (Beagle dogs; female): ~46
- Fold of efficacious dose; 30 mg/kg (Beagle dogs; female): ~15
- Fold of efficacious dose; 10 mg/kg (Beagle dogs; male): ~22
- Fold of efficacious dose; 30 mg/kg (Beagle dogs; male): ~7
- Target organs (Beagle dogs; low dose 20 mg/kg daily oral for 14 days): Bone marrow, heart, Intestines, lymphatic system
- IC50 (LS174T [16]; Homo sapiens, LS174T, read-out: LS174T IC50, basal WNT-pathway luciferase reporter, mean ± s.d. or *± range): 29.5 ± 9.5 nM
- IC50 (LS174T [16]; read-out: LS174T IC50, basal WNT-pathway luciferase reporter, mean ± s.d. or *± range): 36.2 ± 9.5 nM
- IC50 (p-STAT1^SER727; read-out: p-STAT1^SER727 IC50): 7.7 ± 2.2 nM
